Converted amounts (≈) assume the structure as drawn.
Columns and labels:
[1] = system: Tagia sp.
[2] = system: Oncorhynchus mykiss
[3] = system: Daphnia magna; settings: chronic/long-term; duration: 21 days; reproduction
[4] = system: Anas platyrhynchos; settings: oral, mortality
[5] = system: Rattus norvegicus
[6] = system: Apis mellifera; settings: acute; duration: 48 hours; oral; unspecified; mortality
[7] = system: Colinus virginianus

**Q.** For `COC(=O)c1cccc(C)c1S(=O)(=O)NC(=O)Nc1nc(OCC(F)(F)F)nc(N(C)C)n1` [Triflusulfuron-methyl], which LC50 ([1]; acute, duration: 14 days, mortality) is on record?
**A.** 1000 mg/kg

**Q.** And the NOEC ([1]; chronic/long-term, duration: 56 days)?
**A.** 250 mg/kg

**Q.** And the LC50 ([2]; acute, duration: 96 hours, mortality)?
**A.** 730 mg/L (≈ 1480 µM)

**Q.** What about the NOEC ([2]; chronic/long-term, duration: 97 days, growth) of the same molecule?
**A.** 57.7 mg/L

**Q.** What about the NOEC [3] of the same molecule?
**A.** 11 mg/L

**Q.** What about the LD50 ([4]; acute, unspecified) of the same molecule?
**A.** > 2250 mg/kg-day

**Q.** What about the LC50 ([4]; short-term, feed) of the same molecule?
**A.** > 1540 mg/kg-day

**Q.** What about the LD50 ([5]; acute, oral, mortality) of the same molecule?
**A.** > 5000 mg/kg-day

**Q.** And the NOAEL ([5]; chronic, duration: 2 years, oral, diet, body weight)?
**A.** 4.06 mg/kg-day

**Q.** What about the NOAEL ([5]; developmental, development) of the same molecule?
**A.** 120 mg/kg-day

**Q.** What about the NOAEL ([5]; reproduction developmental, body weight) of the same molecule?
**A.** 5.8 mg/kg-day

**Q.** And the NOAEL ([5]; subchronic, duration: 90 days, oral, body weight)?
**A.** 6.6 mg/kg-day

**Q.** What about the LD50 [6] of the same molecule?
**A.** > 100 µg/piece

**Q.** And the LD50 ([7]; acute, oral, mortality)?
**A.** > 2250 mg/kg-day

**Q.** And the NOEC ([7]; reproduction developmental)?
**A.** 27.6 mg/kg-day

— EPA's ToxValDB 9.5 (doi:10.2903/j.efsa.2009.195r)
